Data on nine compounds can be found in PubChem BioAssay (NCI).

Test systems include DU-145 prostate; K-562 leukemia; LOX IMVI melanoma; RPMI-8226 leukemia; SK-MEL-2 melanoma; SNB-19 CNS; T-47D breast; UO-31 renal.
What all share (test): growth of human tumour cells (NCI), 48 h

Several values for one entry are separate records, joined by “and”; a condition that tells them apart may be missing. Equal values may be shown once.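 Growth conditions: 96-well plates. Treatment: test compound, 48 hours, 5 concentrations. Analysis: linear interpolation between bracketing concentrations; unreached endpoints set to highest concentration. The concentration for 50% growth inhibition is given as GI50. TGI denotes the concentration required for complete inhibition of growth.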

In the case of `CC1(C)CC2(C)OC2C2(C1)N=NC(=Nc1ccccc1)O2` (centres undefined), the GI50 was 4.78 µM with DU-145 prostate; 2.3 µM with K-562 leukemia; 1.06 µM with LOX IMVI melanoma; 2.41 µM with RPMI-8226 leukemia; 10.5 µM with SK-MEL-2 melanoma; 14.1 µM in the assay with SNB-19 CNS. The GI50 was 2.83 µM in the assay on T-47D breast and 1.67 µM with UO-31 renal. The TGI with DU-145 prostate amounted to 18.7 µM; in the assay with K-562 leukemia, 12.5 µM; in the assay on LOX IMVI melanoma, 2.62 µM; in the assay with RPMI-8226 leukemia, 6.82 µM; with SK-MEL-2 melanoma, 24.3 µM; with SNB-19 CNS, 28 µM. Further, the TGI was determined as 14.4 µM in the assay with T-47D breast and 4.02 µM in the assay with UO-31 renal.

In the case of `C=C(C)[C@@H]1CCC[C@]2(C(=O)O)CC[C@]3(C)[C@@H](CC[C@@H]4[C@@]5(C)C/C(=C/c6ccncc6)C(=O)C(C)(C)[C@@H]5CC[C@]43C)[C@@H]12`, the GI50 in the assay on DU-145 prostate was 4.03 µM; in the assay with K-562 leukemia, 3.3 µM; in the assay on LOX IMVI melanoma, 1.84 µM; with RPMI-8226 leukemia, 1.8 µM; in the assay with SK-MEL-2 melanoma, 2.59 µM; in the assay with SNB-19 CNS, 3.69 µM. Also, the values for the GI50 with T-47D breast and in the assay on UO-31 renal were 3.98 µM and 1.74 µM, respectively. The TGI is 45.1 µM in the assay on DU-145 prostate; > 100 µM with K-562 leukemia; 3.5 µM with LOX IMVI melanoma; 7.5 µM in the assay with RPMI-8226 leukemia; 6.72 µM with SK-MEL-2 melanoma; 17.1 µM in the assay with SNB-19 CNS. The figures for the TGI in the assay with T-47D breast and in the assay on UO-31 renal were > 100 µM and 4.65 µM, respectively.

For `N#CC1(C#N)C2C=CC(C3CCC=C32)C1(C#N)C#N` (centres undefined), the TGI was > 10 µM in the assay on DU-145 prostate; > 10 µM in the assay with K-562 leukemia; > 10 µM in the assay with LOX IMVI melanoma; 8.79 µM with RPMI-8226 leukemia; > 10 µM in the assay with SK-MEL-2 melanoma; > 10 µM in the assay with SNB-19 CNS. Also, the TGI in the assay with T-47D breast was > 8.87 µM; with UO-31 renal, > 5.88 µM.

Take `CCSc1nc(N)c2cnn(C)c2n1`: the GI50 was 40 µM in the assay with DU-145 prostate; 54.5 µM in the assay on K-562 leukemia; 33 µM in the assay on LOX IMVI melanoma; 37.5 µM with RPMI-8226 leukemia; > 100 µM in the assay on SK-MEL-2 melanoma; 58.4 µM in the assay with SNB-19 CNS. Moreover, the GI50 was 0.0485 µM in the assay with T-47D breast and 38.3 µM with UO-31 renal. Moreover, the TGI in the assay on DU-145 prostate, with K-562 leukemia, with LOX IMVI melanoma, in the assay on RPMI-8226 leukemia, with SK-MEL-2 melanoma and in the assay with SNB-19 CNS was > 100 µM each time. Also, the TGI in the assay on T-47D breast and in the assay on UO-31 renal was > 100 µM in each case.

In the case of `COc1cc(C(=O)/C=C/c2c(C(F)(F)F)nc3sccn23)cc(OC)c1OC`, the GI50 is 1.41 µM in the assay on DU-145 prostate; 1.74 µM with K-562 leukemia; 1.36 µM in the assay on LOX IMVI melanoma; 1.08 µM in the assay on RPMI-8226 leukemia; 2.26 µM in the assay on SK-MEL-2 melanoma; 2.67 µM with SNB-19 CNS. Besides, the GI50 was 2.12 µM in the assay on T-47D breast and 1.87 µM in the assay on UO-31 renal. The TGI is 2.86 µM with DU-145 prostate; 6.27 µM in the assay with K-562 leukemia; 2.89 µM with LOX IMVI melanoma; 4.53 µM in the assay on RPMI-8226 leukemia; 5.09 µM in the assay on SK-MEL-2 melanoma; 10.2 µM in the assay with SNB-19 CNS. For the same compound, the TGI is 5.76 µM with T-47D breast and 3.71 µM with UO-31 renal.

Take `CCCCCCN(CCCCCC)CC(O)c1cccc2ccc(Cl)cc12` (centres undefined): the GI50 is 11.6 µM with DU-145 prostate; 4.87 µM with K-562 leukemia; 4.14 µM with LOX IMVI melanoma; 5.2 µM with RPMI-8226 leukemia; 10.2 µM in the assay with SK-MEL-2 melanoma; 12.9 µM in the assay on SNB-19 CNS. The GI50 with T-47D breast is 1.67 µM; with UO-31 renal it was 4.85 µM. Moreover, the TGI is 25 µM in the assay with DU-145 prostate; 20.9 µM in the assay on K-562 leukemia; 15.6 µM with LOX IMVI melanoma; 22.4 µM in the assay on RPMI-8226 leukemia; 24.6 µM with SK-MEL-2 melanoma; 26.6 µM in the assay on SNB-19 CNS. Moreover, the TGI in the assay with T-47D breast was found to be 4.46 µM; in the assay with UO-31 renal, 19.7 µM.

As for `COc1cc(OC)c(/C=C/S(=O)(=O)Cc2ccc(OC)c(NCC(=O)O)c2)c(OC)c1`, the GI50 in the assay with DU-145 prostate is 0.29 µM and 0.176 µM; with K-562 leukemia, 0.0767 µM and 0.049 µM; in the assay with LOX IMVI melanoma it was 0.15 µM and 0.134 µM; in the assay on RPMI-8226 leukemia, 0.16 µM and 0.331 µM; with SK-MEL-2 melanoma it was 0.396 µM and 0.288 µM; in the assay on SNB-19 CNS it was 0.139 µM and 0.244 µM. Also, the GI50 in the assay with T-47D breast was > 100 µM. For the same compound, the TGI in the assay on K-562 leukemia, in the assay with LOX IMVI melanoma, in the assay on RPMI-8226 leukemia, in the assay with SK-MEL-2 melanoma, with SNB-19 CNS and in the assay with T-47D breast was > 100 µM throughout. In the assay on UO-31 renal, the TGI is > 100 µM.

For `C#Cc1ccc(-n2c(/C=C/c3cc(OC)c(OC)c(OC)c3)nc3ncccc3c2=O)cc1`, the GI50 was 5.36 µM in the assay with DU-145 prostate; 3.83 µM in the assay with K-562 leukemia; 4.61 µM in the assay on LOX IMVI melanoma; 3.6 µM with RPMI-8226 leukemia; 4.54 µM in the assay on SK-MEL-2 melanoma; 16.2 µM in the assay on SNB-19 CNS. In addition, the GI50 in the assay on T-47D breast was 5.85 µM; in the assay on UO-31 renal, 4.09 µM. The TGI in the assay with DU-145 prostate was > 100 µM; in the assay on K-562 leukemia, > 100 µM; in the assay with LOX IMVI melanoma it was 64 µM; in the assay on RPMI-8226 leukemia, > 100 µM; in the assay with SK-MEL-2 melanoma, 22.1 µM; with SNB-19 CNS it was > 100 µM. Besides, the TGI in the assay on T-47D breast and in the assay with UO-31 renal was > 100 µM in each case.

In the case of `CCOc1cccnc1/C=N/NC(N)=S`, the GI50 in the assay on DU-145 prostate is 3.53 µM; in the assay with K-562 leukemia, 3.72 µM; in the assay on LOX IMVI melanoma it was 2.7 µM; in the assay with RPMI-8226 leukemia, 3.82 µM; in the assay with SK-MEL-2 melanoma it was 9.93 µM; with SNB-19 CNS, 4.43 µM. The figures for the GI50 in the assay with T-47D breast and in the assay on UO-31 renal were 4.85 µM and 2.9 µM, respectively. Also, the TGI with DU-145 prostate was > 100 µM; with K-562 leukemia it was > 100 µM; in the assay on LOX IMVI melanoma, 14 µM; in the assay with RPMI-8226 leukemia, > 100 µM; with SK-MEL-2 melanoma it was > 100 µM; with SNB-19 CNS, > 100 µM. Moreover, the values for the TGI in the assay on T-47D breast and in the assay with UO-31 renal were > 100 µM and 26.6 µM, respectively.
